Data: PubChem BioAssay (NCI)
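Exposure lasted 48 hours, with cells grown in 96-well plates and compounds tested at five concentrations. The concentration for full growth arrest is given as TGI.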

Tests used:
Test in all cases: DTP human tumour cell line panel, 48 h
[1] = system: NCI-H23 lung
[2] = system: HCT-15 colon
[3] = system: SK-MEL-5 melanoma
[4] = system: DMS 114 small cell lung
[5] = system: IGROV1 ovarian
[6] = system: MOLT-4 leukemia
[7] = system: HCC-2998 colon
[8] = system: 786-0 renal
[9] = system: SNB-75 CNS
[10] = system: HOP-92 NSCLC
[11] = system: M14 melanoma
[12] = system: XF 498 CNS
[13] = system: UACC-257 melanoma
[14] = system: HT29 colon
[15] = system: RXF-631 renal
[16] = system: OVCAR-8 ovarian
[17] = system: RPMI-8226 leukemia
[18] = system: SK-OV-3 ovarian
[19] = system: NCI-H522 lung
[20] = system: KM12 colon
[21] = system: LOX IMVI melanoma
[22] = system: NCI-H226 lung
[23] = system: SR leukemia
[24] = system: HOP-62 NSCLC
[25] = system: KM20L2 colon
[26] = system: U251 CNS
[27] = system: HL-60(TB) leukemia
[28] = system: DLD-1 colon
[29] = system: EKVX NSCLC
[30] = system: NCI-H460 lung
[31] = system: M19-MEL melanoma
[32] = system: DMS 273 small cell lung
[33] = system: CCRF-CEM leukemia
[34] = system: MALME-3M melanoma
[35] = system: CAKI-1 renal
[36] = system: OVCAR-4 ovarian
[37] = system: SW-620 colon
[38] = system: SF-295 CNS
[39] = system: LXFL 529 NSCLC
[40] = system: OVCAR-5 ovarian
[41] = system: SNB-78 CNS
[42] = system: UO-31 renal
[43] = system: K-562 leukemia
[44] = system: COLO 205 colon
[45] = system: ACHN renal
[46] = system: OVCAR-3 ovarian
[47] = system: RXF 393 renal
[48] = system: SNB-19 CNS
[49] = system: HCT-116 colon
[50] = system: SN12C renal
[51] = system: TK-10 renal
[52] = system: SF-539 CNS
[53] = system: A498 renal
[54] = system: A549 NSCLC
[55] = system: SK-MEL-28 melanoma
[56] = system: SK-MEL-2 melanoma
[57] = system: SF-268 CNS
[58] = system: UACC-62 melanoma
[59] = system: HOP-18 NSCLC

Cn1cc2ccccc2c1-c1nc(N)nc(F)n1
TGI [1]: > 100 µM | TGI [2]: > 100 µM | TGI [3]: > 100 µM | TGI [4]: > 100 µM | TGI [5]: > 100 µM | TGI [6]: > 100 µM | TGI [7]: > 100 µM | TGI [8]: > 100 µM | TGI [9]: > 100 µM | TGI [10]: > 100 µM | TGI [11]: > 100 µM | TGI [12]: > 100 µM | TGI [13]: > 100 µM | TGI [14]: > 100 µM | TGI [15]: > 100 µM | TGI [16]: > 100 µM | TGI [17]: > 100 µM | TGI [18]: > 100 µM | TGI [19]: > 100 µM | TGI [20]: > 100 µM | TGI [21]: > 100 µM | TGI [22]: > 100 µM | TGI [23]: > 100 µM | TGI [24]: > 100 µM | TGI [25]: > 100 µM | TGI [26]: > 100 µM | TGI [27]: > 100 µM | TGI [28]: > 100 µM | TGI [29]: > 100 µM | TGI [30]: > 100 µM | TGI [31]: > 100 µM | TGI [32]: > 100 µM | TGI [33]: > 100 µM | TGI [34]: > 100 µM | TGI [35]: > 100 µM | TGI [36]: > 100 µM | TGI [37]: > 100 µM | TGI [38]: > 100 µM | TGI [39]: > 100 µM | TGI [40]: > 100 µM | TGI [41]: > 100 µM | TGI [42]: > 100 µM | TGI [43]: > 100 µM | TGI [44]: > 100 µM | TGI [45]: > 100 µM | TGI [46]: > 100 µM | TGI [47]: > 100 µM | TGI [48]: > 100 µM | TGI [49]: > 100 µM | TGI [50]: > 100 µM | TGI [51]: > 100 µM | TGI [52]: > 100 µM | TGI [53]: 53.5 µM | TGI [54]: > 100 µM | TGI [55]: > 100 µM | TGI [56]: > 100 µM | TGI [57]: > 100 µM

COc1ccc(C2Oc3c(cc(O)c(OC)c3C)[C@@H]2C)cc1OC (stereo partly drawn)
TGI [1]: > 100 µM | TGI [3]: > 100 µM | TGI [58]: > 100 µM | TGI [4]: > 100 µM | TGI [5]: > 100 µM | TGI [6]: > 100 µM | TGI [7]: > 100 µM | TGI [8]: > 100 µM | TGI [9]: > 100 µM | TGI [10]: > 100 µM | TGI [11]: > 100 µM | TGI [12]: > 100 µM | TGI [13]: > 100 µM | TGI [14]: > 100 µM | TGI [15]: > 100 µM | TGI [16]: > 100 µM | TGI [17]: > 100 µM | TGI [18]: > 100 µM | TGI [19]: > 100 µM | TGI [20]: > 100 µM | TGI [21]: > 100 µM | TGI [22]: > 100 µM | TGI [24]: > 100 µM | TGI [25]: > 100 µM | TGI [26]: > 100 µM | TGI [27]: > 100 µM | TGI [28]: > 100 µM | TGI [29]: > 100 µM | TGI [30]: > 100 µM | TGI [31]: > 100 µM | TGI [32]: > 100 µM | TGI [33]: > 100 µM | TGI [34]: > 100 µM | TGI [59]: > 100 µM | TGI [35]: > 100 µM | TGI [36]: > 100 µM | TGI [37]: > 100 µM | TGI [38]: > 100 µM | TGI [39]: > 100 µM | TGI [40]: > 100 µM | TGI [41]: > 100 µM | TGI [42]: > 100 µM | TGI [43]: > 100 µM | TGI [44]: > 100 µM | TGI [45]: > 100 µM | TGI [46]: > 100 µM | TGI [47]: > 100 µM | TGI [48]: > 100 µM | TGI [49]: > 100 µM | TGI [51]: > 100 µM | TGI [52]: > 100 µM | TGI [53]: > 100 µM | TGI [54]: > 100 µM | TGI [55]: > 100 µM | TGI [56]: > 100 µM | TGI [57]: > 100 µM
